IC50 data for 15 compounds are collected here from patent publication US11459330B2, “Substituted bicyclic heterocyclic compounds as PRMT5 inhibitors” (LUPIN LIMITED, priority 2017, dated 2022).

The term IC50 denotes the point on the concentration scale where inhibition reaches its midpoint.

For test [1], the system named is Z-138 cells. Put plainly: Anti-cancer assay (Z-138), cell viability CellTiterGlo. The format is cell-based. The note with it: Homo sapiens, 96 h, activity range, lower bound in pM, upper bound in nM. As to the method: (§1) Anticancer Activity Assay
(§2) Z-138 cells were seeded at a density of 2000-3000 cells per well in culture media (IMDM+10% FBS). PANC-1 (ATCC, CRL-1469™) and MIA PaCa-2 (ATCC, CRL-1420™) cells were seeded at a density of 200-300 cells per well in culture media (DMEM+10% FBS). Cells were seeded in opaque, flat bottomed tissue culture grade 96-well plates and Z-138 cells (suspension) were seeded and treated on the same day with various concentrations of test compounds. PANC-1 and MIA PaCa-2 cells, being adherent, were kept for overnight settlement at standard cell culture conditions (37° C., 5% CO2). On the following day, cells were treated with various concentrations of test compounds. Cells were treated with test compounds for a period of 96 h, 7 days and 10 days, for Z-138 cells, PANC-1 cells and MIA PaCa-2 cells, respectively. Cell viability was assessed using CellTiterGlo™ (Promega, USA) as per manufacturer's instructions. Relative Light Units (RLU) were read in Synergy™ 2 reader (Biotek, USA). The assay measures cellular ATP as an indicator of cell viability. RLU is proportional to the number of viable cells in the respective well.
(§3) % inhibition of cell viability was calculated relative to the vehicle control samples containing media with 0.1% DMSO alone as per the formula below. (Avg. of Untreated Control−Avg. of Test)×100 Avg. of Untreated Control
(§4) The IC50 values of individual compounds were calculated with Non Linear Regression Analysis using Graph Pad Prism (Graph Pad software, Inc, USA).
Anti-Cancer Assay (Z-138)
A general note: Cellular ATP, detected with luciferase, serves as a proxy for viable cell number.

Another test has as its system PANC-1 cells. Put plainly: Anti-cancer assay (Panc-1), cell viability CellTiterGlo. The note with it: Homo sapiens, PANC-1, 168 h, 7 days. The format is cell-based. Here is the method: as §1, §2, §3, §4
Anti-Cancer Assay (Panc-1)

For test [2], the system named is Z-138 cells. Put plainly: SDMA inhibition assay. The format is cell-based. The note with it: Homo sapiens, 48 h, activity range 1.1 nM to 50 nM. As to the method: SDMA Inhibition Assay Protocol Z-138 cells (ATCC, CRL-3001™) were seeded at a density of 1 million cells/well in transparent, flat bottomed tissue culture grade 48-well plates. Cells were treated with various concentration of test compounds for a period of 48 h. Cell lysate was prepared using 1×CST Lysis buffer (Cell Signaling Technology, USA) and 500 ng/well/50 μL of lysate in pH 9.6 carbonate buffer was coated on 96-well Maxisorb plate and incubated overnight at 4° C. The plate was washed twice in 1×PBS containing 0.05% Tween 20 and blocked in 1% BSA for 1 h at ambient temperature. Further, the plate was incubated first with primary antibody (anti-SDMA antibody; CST #13222s) at ambient temperature for 2 h and then with HRP-conjugated secondary antibody at ambient temperature for 1 h with 2 intermittent washing steps in between.
For luminiscence based detection, HRP substrates (substrate A+substrate B in a 1:1 proportion) were added followed by luminiscence reading after 30 min in Synergy™ 2 reader (Biotek, USA).
For absorbance based detection, TMB substrate was added followed by addition of STOP solution (2N H2SO4) post colour development and absorbance ([…]) was measured in Synergy™ 2 reader (Biotek, USA). % inhibition of SDMA was calculated relative to the vehicle control samples containing media with 0.1% DMSO alone as per the formula below. (Avg. of Untreated Control−Avg. of Test)×100 Avg. of Untreated Control
as §4

The target in the next test is PRMT5:MEP50 (Homo sapiens, UniProt O14744). Put plainly: PRMT5 biochemical HTRF assay (Biochemical Assay Protocol 1 / 2). The note with it: biotinylated H4R3 substrate, 1 μM SAM, protocol 1 or 2 not given, activity range 300 pM to 950 pM, read-out: IC50 (PRMT5 inhibition), activity range. As to the method: Biochemical Assay Protocol 1
PRMT5:MEP50, sequence (O14744 whole entry, the tested form may be a part): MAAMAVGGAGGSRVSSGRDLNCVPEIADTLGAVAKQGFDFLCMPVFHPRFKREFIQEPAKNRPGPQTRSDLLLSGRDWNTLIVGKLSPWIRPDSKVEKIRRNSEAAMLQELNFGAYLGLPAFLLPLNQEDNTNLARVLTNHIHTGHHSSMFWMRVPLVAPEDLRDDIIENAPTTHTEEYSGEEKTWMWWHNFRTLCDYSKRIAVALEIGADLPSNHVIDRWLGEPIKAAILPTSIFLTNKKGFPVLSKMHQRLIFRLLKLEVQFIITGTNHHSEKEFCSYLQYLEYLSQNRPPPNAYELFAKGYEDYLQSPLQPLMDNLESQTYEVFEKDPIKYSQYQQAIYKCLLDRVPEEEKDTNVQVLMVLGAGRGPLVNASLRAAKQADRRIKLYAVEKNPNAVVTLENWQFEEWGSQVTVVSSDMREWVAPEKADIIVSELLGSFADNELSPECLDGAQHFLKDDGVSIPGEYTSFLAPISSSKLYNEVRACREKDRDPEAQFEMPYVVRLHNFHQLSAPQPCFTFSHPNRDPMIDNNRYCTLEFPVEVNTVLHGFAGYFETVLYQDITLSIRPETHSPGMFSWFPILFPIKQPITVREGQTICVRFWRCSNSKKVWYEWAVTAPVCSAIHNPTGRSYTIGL
PRMT5:MEP50, sequence (Q9BQA1 whole entry partner, the tested form may be a part): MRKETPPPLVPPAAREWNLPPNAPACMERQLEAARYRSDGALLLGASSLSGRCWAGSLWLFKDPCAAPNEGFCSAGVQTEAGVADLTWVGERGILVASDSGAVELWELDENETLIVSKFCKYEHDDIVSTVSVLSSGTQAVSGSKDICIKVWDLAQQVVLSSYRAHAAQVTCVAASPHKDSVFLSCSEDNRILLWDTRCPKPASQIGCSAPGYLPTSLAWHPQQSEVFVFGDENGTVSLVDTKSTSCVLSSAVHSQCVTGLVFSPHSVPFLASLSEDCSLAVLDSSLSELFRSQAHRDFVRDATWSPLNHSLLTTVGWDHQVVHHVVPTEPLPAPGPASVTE
(§5) Inhibitory effect of compounds on PRMT5 was assessed using HTRF detection technology in biochemical assay. Biotinylated H4R3 (residues 1-21) was used as a substrate. Compounds were pre-incubated with 15-25 ng PRMT5:MEP50 per well of a 384-well plate for 30 min at room temperature in the assay buffer containing 20 mM Bicine, pH 7.6, 25 mM NaCl, 2 mM DTT, 0.01% Chicken albumin and 0.01% Tween-20. Reaction was initiated by adding 1 μM of SAM and 50 nM biotinylated H4R3. Total assay volume was 15 μL. Reaction was continued for 120 min at room temperature. Then detection solution containing Streptavidin-Eu cryptate, anti-rabbit IgG-XL-665, Histone H4R3 Dimethyl Symmetric (H4R3me2s) Polyclonal Antibody, all prepared in HTRF detection buffer was added and further incubated for 30 min at room temperature. HTRF signal was recorded in PHERAStar microplate reader. Ratio of signal obtained at 665 nm and 620 nm was used to compute the percent inhibition of compound as follows % Inhibition=100−((Test Ratio−Negative control Ratio)/(Positive control Ratio−Negative control Ratio)*100) where Positive control=PRMT5+SAM+H4R3 Negative control=PRMT5+H4R3 Biochemical Assay Protocol 2
as §5, with “2.5” for “15-25”, “4 h” for “120 min”, “control=PRMT5+H4R3” for “control=PRMT5+H4R3 Biochemical Assay Protocol 2”
Background: Time-resolved FRET reads energy transfer from a long-lived donor to a nearby acceptor.

The mark [3] stands for this setting: activity range, lower bound in pM, upper bound in nM.

On to `Cc1ncnc2c1ccn2[C@@H]1C=C(CCc2cc(F)c3cc(Cl)c(N)nc3c2)[C@@](C)(O)[C@H]1O` [Compound-39, (1S,2R,5R)-3-(2-(2-amino-3-chloro-5-fluoroquinolin-7-yl)ethyl)-2-methyl-5-(4-methyl-7H-pyrrolo[2,3-d]pyrimidin-7-yl)cyclopent-3-ene-1,2-diol], for which the concentration for half-maximal inhibition (IC50) in the test on Z-138 cells [1] fell in the range of 101 to 1000 pM; with PANC-1 cells (activity range 20 nM to 100 nM) it was 20000 to 100000 pM.

For `Nc1nc2cc(CC[C@@]34C[C@@H]3[C@@H](n3ccc5c(N)ncnc53)[C@H](O)[C@@H]4O)c(F)cc2cc1Br` [Compound-64, (1R,2R,3S,4R,5S)-1-(2-(2-amino-3-bromo-6-fluoroquinolin-7-yl)ethyl)-4-(4-amino-7H-pyrrolo[2,3-d]pyrimidin-7-yl)bicyclo[3.1.0]hexane-2,3-diol], the figures for the IC50 in the test on Z-138 cells [2], with Z-138 cells [1] and in the test with PANC-1 cells (setting [3]) were 1.1 to 50 nM, 101 to 1000 pM and 300 to 20000 pM, respectively.

On to `Nc1nc2cc(CCC3=C[C@@H](n4ccc5c(N)ncnc54)[C@H](O)[C@@H]3O)c(F)cc2cc1Cl` [Compound-25, (1S,2R,5R)-3-(2-(2-amino-3-chloro-6-fluoroquinolin-7-yl)ethyl)-5-(4-amino-7H-pyrrolo[2,3-d]pyrimidin-7-yl)cyclopent-3-ene-1,2-diol], for which the half-inhibitory concentration (IC50) at PRMT5:MEP50 was in the range of 0.3 to 0.95 nM; in the test on Z-138 cells [2] it was 1.1 to 50 nM; in the test on PANC-1 cells (setting [3]), 300 to 20000 pM.

For the compound `CC(Cc1cc(F)c2cc(Cl)c(N)nc2c1)C1=C[C@@H](n2ccc3c(N)ncnc32)[C@H](O)[C@@H]1O` (single isomer, unassigned) [Compound-33a], the IC50 was in the range of 1.1 to 50 nM in the test on Z-138 cells [2] and 20000 to 100000 pM in the test with PANC-1 cells (activity range 20 nM to 100 nM).

On to `Cc1ncnc2c1ccn2[C@@H]1C=C(C(C)Cc2cc(F)c3cc(Cl)c(N)nc3c2)[C@@H](O)[C@H]1O` (single isomer, unassigned) [Compound-35b], for which the IC50 on PRMT5:MEP50 lay within 0.3 to 0.95 nM; with Z-138 cells [2], 1.1 to 50 nM.

As for `Cn1cc(-c2ncnc3c2ccn3[C@@H]2C=C(CCc3cc(F)c4cc(Cl)c(N)nc4c3)[C@@H](O)[C@H]2O)cn1` [Compound-32, (1S,2R,5R)-3-(2-(2-amino-3-chloro-5-fluoroquinolin-7-yl)ethyl)-5-(4-(1-methyl-1H-pyrazol-4-yl)-7H-pyrrolo[2,3-d]pyrimidin-7-yl)cyclopent-3-ene-1,2-diol], the concentration for half-maximal inhibition (IC50) with Z-138 cells [2] was 1.1 to 50 nM.

Turning to `CC(Cc1ccc2cc(Br)c(N)nc2c1)[C@@]12C[C@@H]1[C@@H](n1ccc3c(N)ncnc31)[C@H](O)[C@@H]2O` (single isomer, unassigned) [Compound-76a], the figures for the IC50 at PRMT5:MEP50, in the test with Z-138 cells [2] and in the test on Z-138 cells [1] were 0.3 to 0.95 nM, 1.1 to 50 nM and 101 to 1000 pM, respectively.

For `CC(Oc1cc(F)c2cc(Cl)c(N)nc2c1)C1=C[C@@H](n2ccc3c(N)ncnc32)[C@H](O)[C@@H]1O` (stereo partly drawn) [Compound-20b, (1S,2R,5R)-3-(1-((2-amino-3-chloro-5-fluoroquinolin-7-yl)oxy)ethyl)-5-(4-amino-7H-pyrrolo[2,3-d]pyrimidin-7-yl)cyclopent-3-ene-1,2-diol], in the test with Z-138 cells [1], the 50% inhibitory concentration (IC50) is 101 to 1000 pM.

As for `CC(Cc1cc(F)c2cc(Cl)c(N)nc2c1)C1=C[C@@H](n2ccc3c(N)ncnc32)[C@H](O)[C@]1(C)O` (stereo partly drawn) [Compound-38, (1S,2R,5R)-3-(1-(2-amino-3-chloro-5-fluoroquinolin-7-yl)propan-2-yl)-5-(4-amino-7H-pyrrolo[2,3-d]pyrimidin-7-yl)-2-methylcyclopent-3-ene-1,2-diol], the figures for the IC50 on PRMT5:MEP50 and in the test with PANC-1 cells (setting [3]) were 0.3 to 0.95 nM and 300 to 20000 pM, respectively.

Consider `Nc1nc2cc(CC[C@@]34C[C@@H]3[C@@H](n3ccc5c(N)ncnc53)[C@H](O)[C@@H]4O)c(F)cc2cc1Cl` [Compound-62, (1R,2R,3S,4R,5S)-1-(2-(2-Amino-3-chloro-6-fluoroquinolin-7-yl)ethyl)-4-(4-amino-7H-pyrrolo[2,3-d]pyrimidin-7-yl) bicyclo[3.1.0]hexane-2,3-diol], for which the 50% inhibitory concentration (IC50) in the test with Z-138 cells [2] lay within 1.1 to 50 nM; with Z-138 cells [1], 101 to 1000 pM; in the test with PANC-1 cells (activity range 20 nM to 100 nM), 20000 to 100000 pM.

`Nc1nc2cc(OCC3=C[C@@H](n4ccc5c(N)ncnc54)[C@H](O)[C@@H]3O)cc(F)c2cc1Cl` [Compound-18, (1S,2R,5R)-3-(((2-amino-3-chloro-5-fluoroquinolin-7-yl)oxy)methyl)-5-(4-amino-7H-pyrrolo[2,3-d]pyrimidin-7-yl)cyclopent-3-ene-1,2-diol]: the IC50 fell in the range of 0.3 to 0.95 nM at PRMT5:MEP50 and 300 to 20000 pM in the test on PANC-1 cells (setting [3]).

As for `CC(Cc1ccc2cc(Br)c(N)nc2c1)C1=C[C@@H](n2ccc3c(N)ncnc32)[C@H](O)[C@@H]1O` (stereo partly drawn) [7b, (1S,2R,5R)-3-(1-(2-Amino-3-bromoquinolin-7-yl)propan-2-yl)-5-(4-amino-7H-pyrrolo[2,3-d]pyrimidin-7-yl)cyclopent-3-ene-1,2-diol], the 50% inhibitory concentration (IC50) was in the range of 101 to 1000 pM with Z-138 cells [1] and 300 to 20000 pM in the test on PANC-1 cells (setting [3]).

With `Nc1nc2cc(CCC3=C[C@@H](n4ccc5c(N)ncnc54)[C@H](O)[C@@H]3O)ccc2cc1Cl` [Compound-2, (1S,2R,5R)-3-(2-(2-amino-3-chloroquinolin-7-yl)ethyl)-5-(4-amino-7H-pyrrolo[2,3-d]pyrimidin-7-yl)cyclopent-3-ene-1,2-diol], the half-maximal inhibitory concentration (IC50) was 0.3 to 0.95 nM at PRMT5:MEP50 and 300 to 20000 pM with PANC-1 cells (setting [3]).

On to `Nc1nc2c(F)c(CCC3=C[C@@H](n4ccc5c(N)ncnc54)[C@H](O)[C@@H]3O)ccc2cc1Cl` [Compound-26, (1S,2R,5R)-3-(2-(2-amino-3-chloro-8-fluoroquinolin-7-yl)ethyl)-5-(4-amino-7H-pyrrolo[2,3-d]pyrimidin-7-yl)cyclopent-3-ene-1,2-diol], for which the IC50 at PRMT5:MEP50 fell in the range of 0.3 to 0.95 nM; in the test on Z-138 cells [1], 101 to 1000 pM.

As to `Nc1ccc2c(F)cc(CCC3=C[C@@H](n4ccc5c(N)ncnc54)[C@H](O)[C@@H]3O)cc2n1` [Compound-47, (1S,2R,5R)-3-(2-(2-amino-5-fluoroquinolin-7-yl)ethyl)-5-(4-amino-7H-pyrrolo[2,3-d]pyrimidin-7-yl)cyclopent-3-ene-1,2-diol], the half-maximal inhibitory concentration (IC50) on PRMT5:MEP50 was in the range of 0.3 to 0.95 nM; in the test on PANC-1 cells (setting [3]) it was 300 to 20000 pM.
